Measurements reported in patent US10259798B2, “High-purity magnesium lithospermate B and preparation method therefor” (priority 2014, dated 2019).
“Also recorded” adds a separate entry of the source. Like-named read-outs stand apart in the source and are kept apart here. Marks after values point to notes of the source that are not given here.

Experiments:
[1] = tested on: bleeding of severed tails of rats; assay: Bleeding time of severed tails of rats; type: in vivo, SD rat; conditions: for Bleeding time: injection through femoral vein, tail severed 2 mins after administration, cut-off 1800 seconds
Text: Sample and control: lithospermic acid B, dipotassium lithospermate B, depside salts of Salvia miltiorrhiza (comprising 85% magnesium lithospermate B), magnesium lithospermate B, formulated with normal saline prior to use; normal saline as solvent control was from Jiangsu Yabang Pharmaceutical Co., Ltd.; the other reagents were all commercially available analytically pure products. Experimental animal: species and strain: SD rat; source: Shanghai SLAC Laboratory Animal Co., Ltd., Laboratory Animal Production License: SCXK (Shanghai) 2012-0002; number and gender: 50, male; animal weight: 120-200 g. Dosage setting: the dosages of lithospermic acid type reagents were set as 50 and 100 mg/kg in the present experiment; normal saline was given as additional solvent control. Tail severing time was 2 mins after administration. Administration route and administration dosage of sample and control: administration by injection through femoral vein, 2 ml/kg. Experimental method: the animals were water fasted overnight. 50 mg/kg pentobarbital sodium was intraperitoneally injected for anesthesia prior to the experiment. After anesthesia of the animals, markers were made at 4 mm from tips of rat tails with a marker pen and ruler. Drugs were injected through femoral veins of the animals. 2 mins later, the tails were swiftly severed at marked positions of the animal tails with a scalpel. The remained animal tails were rapidly inserted into prepared normal saline tubes in 37° C. water bath, and timing was started. The bleeding of the animal tails was observed. If no more bleeding was observed within 30 seconds, the time was recorded as coagulation time (unit: second) of the animals. […] Observation indicator and observation time: the indicator was the bleeding time. Statistical method: the experimental data was represented with x±SD; GraphPad Prism 5 1 way ANOVA was applied for significance test.

[2] = tested on: endothelial cell HMEC-1; type: cell-based
Text: (§1) Sample and control: magnesium lithospermate B (prepared according to Example 6 of the present application), lithospermic acid B (lab made; lot number: 20131017), formulated with normal saline prior to use; normal saline as solvent control was derived from Jiangsu Yabang Pharmaceutical Co., Ltd.; the other reagents were all commercially available analytically pure products. Cell lines and reagents: cardiac myoblast (H9C2); Microvascular Endothelial Cell (HMEC-1); Lactic Dehydrogenase Cytotoxicity Detection Kit, Beyotime Biotechnology Institute. Dosage setting: the dosages of lithospermic acid B and magnesium lithospermate B were set at 10, 50, 100, 200, 400, 800, 1200, 1600 μM and the incubation time was set as 24 hours in the present experiment. Experimental method: H9C2 cells and HMEC-1 cells were respectively incubated in 10% FBS containing low saccharide DMEM medium and MCDB-131 medium, at 37° C. and 5% CO2. Cells were seeded in a 96-well culture plate, which was added with different concentrations of lithospermic acid B solutions and magnesium lithospermate B solutions on the next day (about 80% fusion). After incubation for 24 hours in total, the detection was conducted according to instructions of the Lactic Dehydrogenase Cytotoxicity Detection Kit. Observation indicator and observation time: the observation indicator is the level of lactic dehydrogenase in cells; cell survival rate was represented by intracellular LDH content ratio, i.e. (absorbance of treated sample well−absorbance of sample control well)/(absorbance of cells with maximum enzymatic activity−absorbance of sample control well)×100. Statistical method: the data was presented with average±standard derivation (mean±SD); the comparison of two groups of data was statistically analyzed by student-t test method, P<0.05 indicating statistical difference.

[3] = tested on: cardiac myoblast cell H9C2; type: cell-based
Text: as §1

[4] = type: physicochemical; conditions: for 0 h peak area / 2 h peak area / 4 h peak area / 6 h peak area / 8 h peak area / 12 h peak area / 24 h peak area: HPLC 288 nm; for 0 h peak area: 1 mg/mL aqueous solution at 25° C. diluted 10 times, MLB of Example 1; for 2 h peak area / 4 h peak area / 6 h peak area / 8 h peak area / 12 h peak area / 24 h peak area: aqueous solution; for Average peak area: average over 0-24 h
Method: The chemical stability of magnesium lithospermate B was investigated by detecting the variation of peak areas (HPLC). Specific experimental method: lithospermic acid B (lab-made; lot number: 20131017) and magnesium lithospermate B prepared in Example 1 of the present invention were respectively formulated to 1 mg/mL aqueous solution at 25° C., which was then diluted 10 times. The variation of peak areas of lithospermic acid B at 288 nm for durations of 0, 2, 4, 6, 8, 12, and 24 hours were detected by HPLC, respectively. 10 microliters was injected for each time.

[5] = tested on: lipid oxidation in rat liver microsome; assay: In vitro anti-lipid peroxidation experiment (MDA, TBA method); type: biochemical, SD rat; conditions: 100 μM, 37° C. 90 mins
Text: Sample and control: magnesium lithospermate B (prepared according to Example 6 of the present application), lithospermic acid B (lab-made; lot number: 20131017), formulated with normal saline prior to use; normal saline as solvent control was from Jiangsu Yabang Pharmaceutical Co., Ltd.; the other reagents were all commercially available analytically pure products. Tris base, potassium chloride, dipotassium phosphate, glycerol, etc. (Sinopharm Chemical Reagent Co., Ltd.); Coomassie brilliant blue G-250, bovine serum albumin (Shanghai Lanji Technology Development Co., Ltd.).
Experimental animal: species and strain: SD rat; source: Shanghai SLAC Laboratory Animal Co., Ltd., Laboratory Animal Production License: SCXK (Shanghai) 2012-0002; number and gender: 2, male; animal weight: 200-250 g.
Steps for preparing liver microsome: liver tissue was taken out, cut into pieces, washed with Buffer A, wiped up, and weighed for 8 g. By adding 10 ml Buffer A per gram of tissue, 80 ml was added in total, followed by automatic homogenization and further homogenization with manual homogenizer. The homogenate was centrifuged at 10,000 g and 4° C. for 30 mins, and the supernatant was taken out. The supernatant was centrifuged at 105,000 g and 4° C. for 60 mins. The resulting precipitate is the microsome, which was then added with Buffer B to obtain microsome suspension, aliquoted into 2 ml small tubes, and stored in −70° C. refrigerator for further use. Determination of protein content: using Bradford method (Coomassie brilliant blue G-250 method).
Determination of lipid oxidation in rat liver microsome: 1 ml liver microsome was added into each tube, followed by addition of different concentrations of reagent solutions. The mixtures were well shaken and incubated in 37° C. water bath for 90 mins. After the tubes were taken out, 1 ml 10% trichloroacetic acid (TCA) and 1 ml 0.67% thiobarbituric acid (TBA) were added into each tube. The tubes were placed in boiling water bath for 15 mins, then cooled with running water and centrifuged at 3000 rpm for 10 mins. The supernatants were taken for colorimetric determination at 532 nm. The contents were calculated with standard tetraethoxypropane and represented with content per mg protein.
Calculation formula: MDA content (nmol/mg prot)={[(Asample−Ablank)÷(Astandard−Ablank)]×10 nmol/ml}÷protein content Inhibition rate %=(MDAblank−MDAsample)/MDAblank×100%

Row | 0 h peak area [4] | 2 h peak area [4] | 4 h peak area [4] | 6 h peak area [4] | 8 h peak area [4] | 12 h peak area [4] | 24 h peak area [4] | Average peak area [4] | Structure (SMILES) | Bleeding time ([1]; 50 mg/kg) | Bleeding time ([1]; 100 mg/kg) | Toxic effect at high dosages, in words [2] | Toxic effect at high dosages, in words [3] | Inhibition rate (anti-lipid peroxidation, MDA) ([5]; n = 3) | also measured
1 | – | – | – | – | – | – | – | – | O=C(C=Cc1ccc(O)c2c1C(C(=O)OC(Cc1ccc(O)c(O)c1)C(=O)[O-])C(c1ccc(O)c(O)c1)O2)OC(Cc1ccc(O)c(O)c1)C(=O)[O-].[K+].[K+] (stereo not shown) [Dipotassium lithospermate B, dipotassium lithospermate B, reference compound] | 827 ± 70**^$$ second | 1301 ± 189**^$$ second | – | – | – | –
2 | 3957 | 3991 | 3992 | 3983 | 4002 | 3990 | 4000 | 3987.8 | O=C(/C=C/c1ccc(O)c2c1[C@H](C(=O)O[C@H](Cc1ccc(O)c(O)c1)C(=O)O)[C@@H](c1ccc(O)c(O)c1)O2)O[C@H](Cc1ccc(O)c(O)c1)C(=O)O [Lithospermic acid B, lithospermic acid B, reference compound] | 869 ± 71 s | 1078 ± 137 s | toxic effect | toxic effect | 86.42% | Inhibition rate (anti-lipid peroxidation, MDA) ([5]; n = 3, listed as lithospermic acid B): around 85%
3 | 3611 | 3632 | 3614 | 3636 | 3629 | 3628 | 3599 | 3621.3 | O=C(/C=C/c1ccc(O)c2c1[C@H](C(=O)OC(Cc1ccc(O)c(O)c1)C(=O)[O-])C(c1ccc(O)c(O)c1)O2)O[C@H](Cc1ccc(O)c(O)c1)C(=O)[O-].[Mg+2] (stereo partly shown) [Magnesium lithospermate B, magnesium lithospermate B] | 1098 ± 84 s | 1800 ± 0 s | toxic effect | toxic effect | 84.41% | Bleeding time / activity compared with the other test substances, in words ([1]; same dosage, intravenous injection): remarkably longer than lithospermic acid B administration group; also recorded: significantly longer than dipotassium lithospermate B and depside salts of Salvia miltiorrhiza; also recorded: activity superior to the free acid (lithospermic acid B), other salts (dipotassium lithospermate B), and low purity mixtures (salvianolates of Salvia miltiorrhiza); also recorded: better activities than free acid (lithospermic acid B), other salt (dipotassium lithospermate B), and low purity mixture (depside salts of Salvia miltiorrhiza); Concentrations that significantly decreased the intracellular LDH content as compared with normal control wells ([2]; human, 24 h): 1200 and 1600 μM; Intracellular LDH content percent, HMEC-1 cell ([2]; human, 24 h, 10 μM): 99.70 ± 3.88%; Intracellular LDH content percent, HMEC-1 cell ([2]; human, 24 h, 50 μM): 101.05 ± 4.77%; Intracellular LDH content percent, HMEC-1 cell ([2]; human, 24 h, 100 μM): 100.96 ± 4.01%; Intracellular LDH content percent, HMEC-1 cell ([2]; human, 24 h, 200 μM): 98.58 ± 0.24%; Intracellular LDH content percent, HMEC-1 cell ([2]; human, 24 h, 400 μM): 97.8 ± 1.03%; Intracellular LDH content percent, HMEC-1 cell ([2]; human, 24 h, 800 μM): 96.93 ± 1.37%; Intracellular LDH content percent, HMEC-1 cell ([2]; human, 24 h, 1200 μM): 96.17 ± 1.00 %; Intracellular LDH content percent, HMEC-1 cell ([2]; human, 24 h, 1600 μM): 84.28 ± 3.28 %; Concentrations that significantly decreased the intracellular LDH content as compared with normal control wells ([3]; rat, 24 h): 800, 1200, 1600 μM; Intracellular LDH content percent, H9C2 cell ([3]; rat, 24 h, 10 μM): 101.42 ± 2.00%; Intracellular LDH content percent, H9C2 cell ([3]; rat, 24 h, 50 μM): 99.97 ± 1.43%; Intracellular LDH content percent, H9C2 cell ([3]; rat, 24 h, 100 μM): 101.25 ± 2.79%; Intracellular LDH content percent, H9C2 cell ([3]; rat, 24 h, 200 μM): 102.39 ± 1.37%; Intracellular LDH content percent, H9C2 cell ([3]; rat, 24 h, 400 μM): 102.75 ± 3.07%; Intracellular LDH content percent, H9C2 cell ([3]; rat, 24 h, 800 μM): 37.72 ± 7.52 %; Intracellular LDH content percent, H9C2 cell ([3]; rat, 24 h, 1200 μM): 21.59 ± 2.86 %; Intracellular LDH content percent, H9C2 cell ([3]; rat, 24 h, 1600 μM): 14.59 ± 3.05 %; Inhibition rate (anti-lipid peroxidation, MDA) ([5]; n = 3, listed as magnesium lithospermate B): around 85%
